Like-named read-outs stand apart in the source and are kept apart here.

The conditions of series [1]: no concentration stated.
For series [2] the following is noted: cited from earlier work.

In the case of `COc1cc(Cc2cnc(N)nc2N)cc(OC)c1OC` [Trimethoprim], the “solubility in ethanol (qualitative)” value in series [1] is recorded as “only slightly soluble”. In addition, the “solubility in propylene glycol (qualitative)” value in series [1] was “soluble”. The “solubility in water (qualitative)” value in series [1] is reported as “almost completely insoluble”. Moreover, the solubility is given as 0.81 g/100 mL in series [2] (95% Ethanol); 0.35 g/100 mL in series [2] (Absolute Ethanol); 0.35 g/100 mL in series [2] (Acetone); 0.002 g/100 mL in series [2] (Benzene); 7.29 g/100 mL in series [2] (Benzyl Alcohol); 0.002 g/100 mL in series [2] (Carbon Tetra-Chloride). Also, the solubility in series [2] (Choroform) is listed as 1.82 g/100 mL; in series [2] (Diethyl Ether), 0.00 g/100 mL; in series [2] (Dimethyl Acetamide), 13.86 g/100 mL; in series [2] (Methanol) it was 1.21 g/100 mL; in series [2] (Petroleum Ether), 0.02 g/100 mL; in series [2] (Propylene Glycol), 2.57 g/100 mL. The solubility in series [2] (Water) is recorded as 0.04 g/100 mL.

The values above are taken from patent US10335518B2, “Catheter locking formulation and method to prepare same” (priority 2013, dated 2019).
